From PubChem BioAssay (NCI) come the findings set out here.

Some test systems named below: 786-0 renal; COLO 205 colon; DU-145 prostate; HCT-15 colon; IGROV1 ovarian; KM12 colon; MCF7 breast; NCI/ADR-RES ovarian; SF-268 CNS; SF-295 CNS; SK-OV-3 ovarian; SN12C renal; UACC-62 melanoma.
What all share (experiment): NCI-60 cell line screen, 48 h

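Method: 48-hour compound exposure of cells in 96-well plates, five concentrations, linear interpolation of endpoints. The concentration for full growth arrest is given as TGI.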

For the molecule `c1ccc2c(OCC3CO3)ccc(OCC3CO3)c2c1` (stereo not drawn), the TGI in the test on 786-0 renal worked out at 5.57 µM; in the test with COLO 205 colon, 23 µM; in the test on DU-145 prostate, 5.47 µM; in the test with HCT-15 colon it was 14.9 µM; in the test with IGROV1 ovarian, 16 µM; in the test on KM12 colon, 16.1 µM. Moreover, the TGI with MCF7 breast came out at 4.66 µM; in the test on NCI/ADR-RES ovarian, 31.1 µM; in the test with SF-268 CNS it was 12.1 µM; in the test with SF-295 CNS, 14.1 µM; with SK-OV-3 ovarian, 26.6 µM; in the test on SN12C renal it was 11.5 µM. The molecule also returned a TGI in the test on UACC-62 melanoma of 12.2 µM.

On to `COc1cc(/C=C2\CCC(C)c3c2nc(N)c(C#N)c3-c2cc(OC)c(OC)c(OC)c2)cc(OC)c1OC` (stereo not drawn), for which the TGI in the test with 786-0 renal, in the test on DU-145 prostate, in the test on HCT-15 colon, in the test on IGROV1 ovarian, with KM12 colon and with MCF7 breast was greater than 100 µM each time. Moreover, the TGI in the test on SF-268 CNS, in the test on SK-OV-3 ovarian, in the test with SN12C renal and in the test with UACC-62 melanoma was greater than 100 µM throughout.

For the molecule `[N-]=[N+]=Nc1cc(=O)n(-c2ccccc2)c(=O)n1-c1ccccc1`, the TGI with 786-0 renal, in the test on COLO 205 colon, with IGROV1 ovarian, with KM12 colon, in the test on MCF7 breast and in the test with NCI/ADR-RES ovarian was greater than 100 µM each time. Besides, the TGI in the test with SF-268 CNS, in the test with SF-295 CNS, with SK-OV-3 ovarian, in the test with SN12C renal and in the test with UACC-62 melanoma was greater than 100 µM throughout.

`Cc1ccc(-c2cnc(NC3OC(COC(=O)c4ccccc4)C(OC(=O)c4ccccc4)C(OC(=O)c4ccccc4)C3OC(=O)c3ccccc3)s2)cc1` (stereo not drawn): the TGI with 786-0 renal, in the test on COLO 205 colon, with DU-145 prostate, with HCT-15 colon, in the test on IGROV1 ovarian and with MCF7 breast was greater than 100 µM each time. Besides, the TGI with NCI/ADR-RES ovarian, in the test with SF-268 CNS, in the test on SF-295 CNS, in the test on SK-OV-3 ovarian, in the test on SN12C renal and in the test on UACC-62 melanoma was greater than 100 µM in each case.

For `c1ccc2c(c1)n1c(N3CCOCC3)[n+]3ccccc3c1c1c3cccc[n+]3c(N3CCOCC3)n21`, the TGI in the test on 786-0 renal, with COLO 205 colon, in the test on DU-145 prostate, in the test on HCT-15 colon, in the test on IGROV1 ovarian and in the test with KM12 colon was greater than 100 µM throughout. The TGI in the test with MCF7 breast was greater than 100 µM; in the test on NCI/ADR-RES ovarian, greater than 100 µM; with SF-268 CNS, 68.2 µM; in the test on SF-295 CNS, greater than 100 µM; in the test with SN12C renal it was greater than 100 µM; with UACC-62 melanoma, greater than 100 µM.

For `NC(=O)CC1(O)C=CC(=O)C=C1`, the TGI in the test with 786-0 renal, with COLO 205 colon, in the test on DU-145 prostate, in the test with HCT-15 colon, in the test with IGROV1 ovarian and in the test with KM12 colon was greater than 100 µM throughout. The TGI in the test with MCF7 breast, in the test on NCI/ADR-RES ovarian, in the test with SF-295 CNS, in the test on SK-OV-3 ovarian, in the test on SN12C renal and in the test with UACC-62 melanoma was greater than 100 µM throughout.

In the case of `O=S(=O)([N-]c1nc2ccccc2nc1-[n+]1ccccc1)c1ccccc1`, the TGI in the test on 786-0 renal, in the test on COLO 205 colon, with HCT-15 colon, in the test on IGROV1 ovarian, with KM12 colon and in the test on MCF7 breast was greater than 100 µM throughout. For the same molecule, the TGI with NCI/ADR-RES ovarian, with SF-268 CNS, in the test with SF-295 CNS, in the test with SK-OV-3 ovarian, with SN12C renal and with UACC-62 melanoma was greater than 100 µM each time.

For `CN(C)Cc1cc(C(=O)/C=C/c2c(Cl)cccc2Cl)cc(CN(C)C)c1O`, the TGI in the test on 786-0 renal is 16.2 µM; with COLO 205 colon it was 7.66 µM; with DU-145 prostate, 20.8 µM; in the test with HCT-15 colon, 24.2 µM; in the test with IGROV1 ovarian it was 21.8 µM; with KM12 colon it was 7.2 µM. Further, the TGI in the test on MCF7 breast was 14.7 µM; in the test with NCI/ADR-RES ovarian, 41 µM; with SF-268 CNS, 32.4 µM; with SF-295 CNS it was 23.1 µM; with SN12C renal it was 21 µM.

In the case of `C#CCOC(=O)C(N)CS` (stereo not drawn), the TGI in the test with 786-0 renal, in the test with COLO 205 colon, in the test on DU-145 prostate, in the test on IGROV1 ovarian, in the test on KM12 colon and in the test on MCF7 breast was greater than 100 µM throughout. The TGI with NCI/ADR-RES ovarian, in the test with SF-268 CNS, in the test on SF-295 CNS, in the test on SK-OV-3 ovarian, in the test with SN12C renal and with UACC-62 melanoma was greater than 100 µM in each case.

In the case of `CC(C)CC(NC(=O)OCc1ccccc1)C(=O)NCCCCC(N)C(=O)NC(CCCCNC(=O)C(CC(C)C)NC(=O)OCc1ccccc1)C(=O)NC(CCCCNC(=O)C(CC(C)C)NC(=O)OCc1ccccc1)C(=O)NC(CCCCNC(=O)C(CC(C)C)NC(=O)OCc1ccccc1)C(=O)NC(CCCCNC(=O)C(CC(C)C)NC(=O)OCc1ccccc1)C(=O)NC(CCCCNC(=O)C(CC(C)C)NC(=O)OCc1ccccc1)C(=O)O` (stereo not drawn), the TGI in the test with 786-0 renal, in the test with DU-145 prostate, in the test on HCT-15 colon, in the test with IGROV1 ovarian, with MCF7 breast and in the test on SN12C renal was greater than 100 µM throughout. Further, in the test with UACC-62 melanoma, the TGI was greater than 100 µM.

For `COC(=O)CC1CN(C(=O)OCc2ccccc2)C(C)(C)O1` (stereo not drawn), the TGI with 786-0 renal, in the test with COLO 205 colon, in the test with DU-145 prostate, with HCT-15 colon, with IGROV1 ovarian and with KM12 colon was greater than 100 µM throughout. Moreover, the TGI with MCF7 breast, in the test with NCI/ADR-RES ovarian, in the test with SF-295 CNS, in the test on SK-OV-3 ovarian, with SN12C renal and in the test with UACC-62 melanoma was greater than 100 µM each time.

As for `COC(=O)c1cccc(C)c1C1CN=NC12Cc1c(ccc(C)c1C)C2=O` (stereo not drawn), the TGI with 786-0 renal, in the test with DU-145 prostate, in the test on HCT-15 colon, with IGROV1 ovarian, with KM12 colon and with MCF7 breast was greater than 100 µM throughout. Moreover, the TGI with NCI/ADR-RES ovarian, in the test with SF-268 CNS and with SN12C renal was greater than 100 µM in each case.

As to `NC(=Nc1ccc(Cl)c(Cl)c1)c1ccccc1N`, the TGI with 786-0 renal is greater than 100 µM; in the test on COLO 205 colon, 52.8 µM; with DU-145 prostate, greater than 100 µM; with HCT-15 colon it was greater than 100 µM; in the test with IGROV1 ovarian, 97.9 µM; in the test with KM12 colon, greater than 100 µM. Also, the TGI is greater than 100 µM with MCF7 breast; 95.5 µM with NCI/ADR-RES ovarian; greater than 100 µM in the test on SF-268 CNS; greater than 100 µM in the test with SF-295 CNS; greater than 100 µM with SK-OV-3 ovarian; greater than 100 µM with UACC-62 melanoma.

Consider `CC1=C/C(=N\N(C)C)C(C(O)(C(F)(F)F)C(F)(F)F)C(C)(C)C1` (stereo not drawn), for which the TGI with 786-0 renal, in the test on COLO 205 colon, with DU-145 prostate, in the test with HCT-15 colon, in the test with IGROV1 ovarian and in the test with KM12 colon was greater than 100 µM in each case. Moreover, the TGI in the test on MCF7 breast, in the test on NCI/ADR-RES ovarian, in the test on SF-268 CNS, with SF-295 CNS, with SN12C renal and with UACC-62 melanoma was greater than 100 µM in each case.

Take `Nc1ccccc1C(=O)NNC(=O)c1ccccc1N`: the TGI in the test with 786-0 renal, in the test on COLO 205 colon, with DU-145 prostate, in the test with HCT-15 colon, in the test with IGROV1 ovarian and in the test with KM12 colon was greater than 100 µM throughout. Also, the TGI with MCF7 breast, with NCI/ADR-RES ovarian, with SF-295 CNS, with SK-OV-3 ovarian, in the test with SN12C renal and in the test with UACC-62 melanoma was greater than 100 µM in each case.

On to `CC/C(=C/OC)P1(=O)OC(C)(C)CN1C(C)(C)C` (stereo not drawn), for which the TGI in the test on 786-0 renal, in the test with COLO 205 colon, in the test with DU-145 prostate, in the test with HCT-15 colon, in the test on IGROV1 ovarian and in the test with KM12 colon was greater than 100 µM throughout. Moreover, the TGI with MCF7 breast, in the test with NCI/ADR-RES ovarian, in the test with SF-268 CNS, in the test with SF-295 CNS, with SK-OV-3 ovarian and with UACC-62 melanoma was greater than 100 µM throughout.

As to `COC(=O)C1=C(C(=O)OC)C(C(=O)c2ccccc2)N2N=C(c3ccc(Cl)cc3)C=CC12` (stereo not drawn), the TGI with 786-0 renal, with COLO 205 colon, in the test with DU-145 prostate, with HCT-15 colon, in the test with KM12 colon and with MCF7 breast was greater than 100 µM throughout. Moreover, the TGI in the test on NCI/ADR-RES ovarian, in the test on SF-268 CNS, in the test with SF-295 CNS, with SK-OV-3 ovarian, in the test with SN12C renal and in the test on UACC-62 melanoma was greater than 100 µM each time.
